This passage reports GI50 and IC50 results from US8143282B2, “Heterocyclic compounds” (S*BIO Pte Ltd., priority 2005, dated 2012).

pIC50: −log10 of the molar value.

For assay [1], the system named is Colo205 cells. The assay can be described thus: Cell-based proliferation assay for GI50 (CyQUANT), Colo205. The settings on record: Homo sapiens, COLO 205, 96 h treatment, read-out: Cellular or Growth Inhibition Activity in Colo205 cells, GI50. As for the experimental part:
Human colon cancer cell lines (Colo205, HCT116), Ovarian cancer cell line (A2780), Hepatoma cell line (HEP3B), Prostate cancer cell line (PC3) were obtained from ATCC or ECACC. Colo205 cells were cultivated in RPMI 1640 containing 2 mM L-Glutamine, 5% FBS, 1.0 mM Na Pyruvate, 1 U/ml of penicillin and 1 μg of streptomycin. HCT116 cells were cultivated in McCoy's containing RPMI 1640 containing 2 mM L-Glutamine, 5% FBS, 1 U/ml of penicillin and 1 μg of streptomycin. A2780 cells were cultivated in RPMI 1640 containing 2 mM L-Glutamine, 5% FBS, 1 U/ml of penicillin and 1 μg of streptomycin. HEP3B cells were cultivated in EMEM containing 2 mM L-glutamine, 5% FBS, 1% non essential amino acid, 1 mM Na Pyruvate, 1 U/ml of penicillin and 1 μg of streptomycin. PC3 cells were cultivated in F12K, 2 mM L-glutamine, 5% FBS, 1 U/ml of penicillin and 1 μg of streptomycin. PC3, Colo205, and HCT116 cells were seeded in 96-wells plate at 1000, 5000 and 6000 cells per well respectively. A2780 and HEP3B cells were seeded in 96-wells plate at 4000 cells per well respectively. The plates were incubated at 37° C., 5% CO2, for 24 h. Cells were treated with compounds at various concentrations for 96 h. Cell growth was then monitored using CyQUANT® cell proliferation assay (Invitrogen Pte Ltd). Dose response curves were plotted to determine GI50 values for the compounds using XL-fit (ID Business Solution, Emeryville, Calif.). GI50 is defined as the concentration of compound required for 50% inhibition of cell growth.

Assay [2] deals with T1, HDAC1 enzyme (Homo sapiens, UniProt Q13547).
T1 construct: Amplification of human HDAC1 coding region from this cDNA library was cloned separately into the baculovirus expression pDEST20 vector; made in house; host or cells: SF9 insect cells, pDEST20-HDAC1 baculovirus
T1 sequence (Q13547 whole entry): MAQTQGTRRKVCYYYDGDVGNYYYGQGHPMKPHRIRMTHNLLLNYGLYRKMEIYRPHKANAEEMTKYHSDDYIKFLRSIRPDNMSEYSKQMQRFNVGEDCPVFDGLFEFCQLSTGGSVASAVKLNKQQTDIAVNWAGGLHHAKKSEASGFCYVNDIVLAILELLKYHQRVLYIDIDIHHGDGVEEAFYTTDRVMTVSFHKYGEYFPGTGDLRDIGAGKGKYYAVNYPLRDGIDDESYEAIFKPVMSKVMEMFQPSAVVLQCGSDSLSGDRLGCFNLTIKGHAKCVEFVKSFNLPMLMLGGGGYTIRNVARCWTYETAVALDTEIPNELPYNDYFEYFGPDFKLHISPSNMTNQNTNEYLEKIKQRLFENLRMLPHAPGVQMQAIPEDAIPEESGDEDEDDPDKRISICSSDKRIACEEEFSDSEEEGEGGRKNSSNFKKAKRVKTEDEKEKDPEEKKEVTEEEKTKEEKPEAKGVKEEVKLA
Briefly: In vitro HDAC assay for determination of IC50 values (BIOMOL fluorescent-based HDAC activity assay). It is filed as biochemical. As for the experimental part: Human cDNA library was prepared using cultured SW620 cells. Amplification of human HDAC1 coding region from this cDNA library was cloned separately into the baculovirus expression pDEST20 vector (GATEWAY Cloning Technology, Invitrogen Pte Ltd). The pDEST20-HDAC1 construct was confirmed by DNA sequencing. Recombinant baculovirus was prepared using the Bac-To-Bac method following the manufacturer's instruction (Invitrogen Pte Ltd).
Expression of GST-HDAC1 was done by infecting SF9 cells (Invitrogen Pte Ltd) with pDEST20-HDAC1 baculovirus at MOI=1 for 48 h. Soluble cell lysate was incubated with pre-equilibrated Glutathione Sepharose 4B beads (Amersham) at 4° C. for 2 h. The beads were washed with PBS buffer for 3 times. The GST-HDAC1 protein was eluted by elution buffer containing 50 mM Tris, pH8.0, 150 mM NaCl, 1% Triton X-100 and 10 mM or 20 mM reduced Glutathione. The purified GST-HDAC1 protein was dialyzed with HDAC storage buffer containing 10 mM Tris, pH7.5, 100 mM NaCl and 3 mM MgCl2. 20% Glycerol was added to purified GST-HDAC1 protein before storage at −80° C.
The assay has been carried out in 96 well format and the BIOMOL fluorescent-based HDAC activity assay has been applied. […] Flur de lys Developer was added and the reaction was incubated for 10 min. Briefly, deacetylation of the substrate sensitizes it to the developer, which then generates a fluorophore. The fluorophore is excited with 360 nm light and the emitted light (460 nm) is detected on a fluorometric plate reader (Tecan Ultra Microplate detection system, Tecan Group Ltd.).
The analytical software, Prism 4.0 (GraphPad Software Inc) has been used to generate IC50 from a series of data.

Take `CCCCc1nc2cc(/C=C/C(=O)NO)ccc2n1CC(C)(C)CN(C)C` [Compound 3, 3-[2-Butyl-1-(3-dimethylamino-2,2-dimethyl-propyl)-1H-benzoimidazol-5-yl]-N-hydroxy-acrylamide]: the GI50 (in general, the concentration giving 50% growth inhibition) in assay [1] came out at 2220 nM.
Take `CSCCc1nc2cc(/C=C/C(=O)NO)ccc2n1CC(C)(C)CN(C)C` [Compound 4, 3-[1-(3-Dimethylamino-2,2-dimethyl-propyl)-2-(2-methylsulfanyl-ethyl)-1H-benzoimidazol-5-yl]-N-hydroxy-acrylamide]: in assay [1], the GI50 was 2620 nM. In addition, the pIC50 (in general, the negative decadic logarithm of the IC50, by convention in mol/L) in assay [2] was 6.92.
For `CCOCc1nc2cc(/C=C/C(=O)NO)ccc2n1CC(C)(C)CN(C)C` [Compound 5, 3-[1-(3-Dimethylamino-2,2-dimethyl-propyl)-2-ethoxymethyl-1H-benzoimidazol-5-yl]-N-hydroxy-acrylamide], the GI50 in assay [1] amounted to 2580 nM. Also, in assay [2], the pIC50 was 6.77.
As to `CC(C)Cc1nc2cc(/C=C/C(=O)NO)ccc2n1CC(C)(C)CN(C)C` [Compound 6, 3-[1-(3-Dimethylamino-2,2-dimethyl-propyl)-2-isobutyl-1H-benzoimidazol-5-yl]-N-hydroxy-acrylamide], the GI50 in assay [1] was determined as 2690 nM. Besides, in assay [2], the pIC50 was 6.74.
For the compound `C#CCCc1nc2cc(/C=C/C(=O)NO)ccc2n1CC(C)(C)CN(C)C` [Compound 9, 3-[2-But-3-ynyl-1-(3-dimethylamino-2,2-dimethyl-propyl)-1H-benzoimidazol-5-yl]-N-hydroxy-acrylamide], the GI50 in assay [1] amounted to 1870 nM. Further, the pIC50 in assay [2] was 6.68.
For `C=CCCc1nc2cc(/C=C/C(=O)NO)ccc2n1CC(C)(C)CN(C)C` [Compound 10, 3-[2-But-3-enyl-1-(3-dimethylamino-2,2-dimethyl-propyl)-1H-benzoimidazol-5-yl]-N-hydroxy-acrylamide], the GI50 in assay [1] was determined as 1770 nM. The compound further showed a pIC50 in assay [2] of 6.85.
As for `CN(C)CC(C)(C)Cn1c(CCC(F)(F)F)nc2cc(/C=C/C(=O)NO)ccc21` [Compound 13, 3-[1-(3-Dimethylamino-2,2-dimethyl-propyl)-2-(3,3,3-trifluoro-propyl)-1H-benzoimidazol-5-yl]-N-hydroxy-acrylamide], the GI50 in assay [1] was 5500 nM. Moreover, in assay [2], the pIC50 was 6.38.
On the same counts, the results for `CCOCc1nc2cc(/C=C/C(=O)NO)ccc2n1CCN(CC)CC` [Compound 15, 3-[1-(2-Diethylamino-ethyl)-2-ethoxymethyl-1H-benzoimidazol-5-yl]-N-hydroxy-acrylamide] are 1500 nM and 7.07.
Turning to `CCN(CC)CCn1c(CC(C)(C)C)nc2cc(/C=C/C(=O)NO)ccc21` [Compound 17, 3-[1-(2-Diethylamino-ethyl)-2-(2,2-dimethyl-propyl)-1H-benzoimidazol-5-yl]-N-hydroxy-acrylamide], the GI50 in assay [1] worked out at 1190 nM. Further, the pIC50 in assay [2] was 6.89.
On the same counts, the results for `CC(C)N(CCn1c(CC(C)(C)C)nc2cc(/C=C/C(=O)NO)ccc21)C(C)C` [Compound 20, 3-[1-(2-Diisopropylamino-ethyl)-2-(2,2-dimethyl-propyl)-1H-benzoimidazol-5-yl]-N-hydroxy-acrylamide] are 2660 nM and 6.59.
With `CC(C)Cc1nc2cc(/C=C/C(=O)NO)ccc2n1CCN(C(C)C)C(C)C` [Compound 21, 3-[1-(2-Diisopropylamino-ethyl)-2-isobutyl-1H-benzoimidazol-5-yl]-N-hydroxy-acrylamide], the GI50 in assay [1] amounted to 2510 nM. In addition, the pIC50 in assay [2] was 6.42.
As for `CN(C)CC(C)(C)Cn1c(C2CCCCC2)nc2cc(/C=C/C(=O)NO)ccc21` [Compound 24, 3-[2-Cyclohexyl-1-(3-dimethylamino-2,2-dimethyl-propyl)-1H-benzoimidazol-5-yl]-N-hydroxy-acrylamide], the GI50 in assay [1] was 2990 nM. The compound further showed a pIC50 in assay [2] of 6.29.
The corresponding values for `CN(C)CC(C)(C)Cn1c(C2CC3C=CC2C3)nc2cc(/C=C/C(=O)NO)ccc21` (stereo not shown) [Compound 25, 3-[2-Bicyclo[2.2.1]hept-5-en-2-yl-1-(3-dimethylamino-2,2-dimethyl-propyl)-1H-benzoimidazol-5-yl]-N-hydroxy-acrylamide] are 2380 nM and 6.64.
As to `CC/C=C\CCc1nc2cc(/C=C/C(=O)NO)ccc2n1CCN(CC)CC` [Compound 26, 3-[1-(2-Diethylamino-ethyl)-2-hex-3-enyl-1H-benzoimidazol-5-yl]-N-hydroxy-acrylamide], the GI50 in assay [1] stood at 370 nM. Also, the pIC50 in assay [2] is 7.40.
The corresponding values for `CC/C=C\CCc1nc2cc(/C=C/C(=O)NO)ccc2n1CCN(C(C)C)C(C)C` [Compound 27, 3-[1-(2-Diisopropylamino-ethyl)-2-hex-3-enyl-1H-benzoimidazol-5-yl]-N-hydroxy-acrylamide] are 1420 nM and 6.64.
Regarding `CC/C=C\CCc1nc2cc(/C=C/C(=O)NO)ccc2n1CCNC(C)C` [Compound 28, 3-[2-Hex-3-enyl-1-(2-isopropylamino-ethyl)-1H-benzoimidazol-5-yl]-N-hydroxy-acrylamide], the GI50 in assay [1] was determined as 180 nM. The compound further showed a pIC50 in assay [2] of 7.68.
As to `CC/C=C\CCc1nc2cc(/C=C/C(=O)NO)ccc2n1CCCNC(C)C` [Compound 29, 3-[2-Hex-3-enyl-1-(3-isopropylamino-propyl)-1H-benzoimidazol-5-yl]-N-hydroxy-acrylamide], the GI50 in assay [1] came out at 1920 nM. Further, in assay [2], the pIC50 is 6.89.
On to `CCCCCCc1nc2cc(/C=C/C(=O)NO)ccc2n1CCN(CC)CC` [Compound 31, 3-[1-(2-Diethylamino-ethyl)-2-hexyl-1H-benzoimidazol-5-yl]-N-hydroxy-acrylamide], for which the GI50 in assay [1] came out at 420 nM.
Take `CC(Cc1nc2cc(/C=C/C(=O)NO)ccc2n1CCCNC(C)C)CC(C)(C)C` (stereo not shown) [Compound 32, N-Hydroxy-3-[1-(3-isopropylamino-propyl)-2-(2,4,4-trimethyl-pentyl)-1H-benzoimidazol-5-yl]-acrylamide]: in assay [1], the GI50 was 740 nM. The pIC50 in assay [2] was 7.22.
As for `CC(C)NCCCn1c(CC(C)(C)C)nc2cc(/C=C/C(=O)NO)ccc21` [Compound 33, 3-[2-(2,2-Dimethyl-propyl)-1-(3-isopropylamino-propyl)-1H-benzoimidazol-5-yl]-N-hydroxy-acrylamide], in assay [1], the GI50 was determined as 2110 nM. The compound also showed a pIC50 in assay [2] of 6.64.
For `CC(C)N(CCn1c(CCC(F)(F)F)nc2cc(/C=C/C(=O)NO)ccc21)C(C)C` [Compound 34, 3-[1-(2-Diisopropylamino-ethyl)-2-(3,3,3-trifluoro-propyl)-1H-benzoimidazol-5-yl]-N-hydroxy-acrylamide], the GI50 in assay [1] was found to be 4400 nM. In assay [2], this compound gave a pIC50 of 6.06.
Turning to `CCNCCn1c(CC(C)(C)C)nc2cc(/C=C/C(=O)NO)ccc21` [Compound 36], the GI50 in assay [1] turned out to be 860 nM. The same compound gave a pIC50 in assay [2] of 7.02.
As to `CCNCCn1c(CC(C)C)nc2cc(/C=C/C(=O)NO)ccc21` [Compound 37, 3-[1-(2-Ethylamino-ethyl)-2-isobutyl-1H-benzoimidazol-5-yl]-N-hydroxy-acrylamide], the GI50 in assay [1] is 1090 nM. Also, in assay [2], the pIC50 was 7.04.
Consider `CCCCc1nc2cc(/C=C/C(=O)NO)ccc2n1CCN(C)C` [Compound 57, 3-[2-Butyl-1-(2-dimethylamino-ethyl)-1H-benzoimidazol-5-yl]-N-hydroxy-acrylamide], for which the GI50 in assay [1] amounted to 650 nM.
Regarding `O=C(/C=C/c1ccc2c(c1)ncn2C1CCN(CCCc2ccccc2)C1)NO` (stereo not shown) [Compound 98, (E)-N-hydroxy-3-(1-(1-(3-phenylpropyl)pyrrolidin-3-yl)-1H-benzo[d]imidazol-5-yl)acrylamide], the pIC50 in assay [2] is 6.49.
